From patent publication US6552196B2, “Quinolone carboxylic acid derivatives” (Dong Wha Pharmaceutical Industrial Co., Ltd., priority 1997, dated 2003)
Values after ≈ are worked out from the molar mass of the structure shown.

What was measured:
Assay type in all cases: cell-based
[1] = system: Enterobacter clocae 1321E; test: In vitro antibacterial activity (MIC), agar dilution; conditions: 2-fold agar dilution, Muller-Hinton agar, 18 hours at 37° C., read-out: minimum inhibitory concentration (MIC)
Protocol: (§1) 10^7 cfu/ml of bacteria were inoculated and cultured for 18 hours at 37° C. and then the antibacterial activities were measured. For the methicillin resistant strains the activities were measured after 48 hours of cultivation at 30° C. Hoechst Standard strains were used for the testings.

Enterobacter clocae P99 = test: as above; conditions: 2-fold agar dilution, Muller-Hinton agar, 18 hours at 37° C., read-out: minimum inhibitory concentration (MIC)
Protocol: as §1

Esherichia coli 078 = test: as above; conditions: 2-fold agar dilution, Muller-Hinton agar, 18 hours at 37° C., read-out: minimum inhibitory concentration (MIC)
Protocol: as §1

Esherichia coli 1507E = test: as above; conditions: 2-fold agar dilution, Muller-Hinton agar, 18 hours at 37° C., read-out: minimum inhibitory concentration (MIC)
Protocol: as §1

Esherichia coli DC0 = test: as above; conditions: 2-fold agar dilution, Muller-Hinton agar, 18 hours at 37° C., read-out: minimum inhibitory concentration (MIC)
Protocol: as §1

Esherichia coli TEM = test: as above; conditions: 2-fold agar dilution, Muller-Hinton agar, 18 hours at 37° C., read-out: minimum inhibitory concentration (MIC)
Protocol: as §1

[2] = system: Klebsiella aerogenes 1522E; test: as above; conditions: 2-fold agar dilution, Muller-Hinton agar, 18 hours at 37° C., read-out: minimum inhibitory concentration (MIC)
Protocol: as §1

Klebsiella oxytoca 1082E = test: as above; conditions: 2-fold agar dilution, Muller-Hinton agar, 18 hours at 37° C., read-out: minimum inhibitory concentration (MIC)
Protocol: as §1

[3] = system: Pseudomonas aeruginosa 1592E; test: as above; conditions: 2-fold agar dilution, Muller-Hinton agar, 18 hours at 37° C., read-out: minimum inhibitory concentration (MIC)
Protocol: as §1

[4] = system: Pseudomonas aeruginosa 1771M; test: as above; conditions: Pseudomonas aeruginosa, 1771M, 18 h, read-out: minimum inhibitory concentration (MIC)
Protocol: as §1

[5] = system: Pseudomonas aeruginosa 1771; test: as above; conditions: 2-fold agar dilution, Muller-Hinton agar, 18 hours at 37° C., read-out: minimum inhibitory concentration (MIC)
Protocol: as §1

[6] = system: Pseudomonas aeruginosa 9027; test: as above; conditions: 2-fold agar dilution, Muller-Hinton agar, 18 hours at 37° C., read-out: minimum inhibitory concentration (MIC)
Protocol: as §1

Salmonella typhimurium = test: as above; conditions: Salmonella enterica, 2-fold agar dilution, Muller-Hinton agar, 18 hours at 37° C., read-out: minimum inhibitory concentration (MIC)
Protocol: as §1

[7] = system: Staphylococcus aureus 285; test: as above; conditions: 2-fold agar dilution, Muller-Hinton agar, 18 hours at 37° C., read-out: minimum inhibitory concentration (MIC)
Protocol: as §1

[8] = system: Staphylococcus aureus 503; test: as above; conditions: 2-fold agar dilution, Muller-Hinton agar, 18 hours at 37° C., read-out: minimum inhibitory concentration (MIC)
Protocol: as §1

[9] = system: Staphylococcus aureus SG511; test: as above; conditions: 2-fold agar dilution, Muller-Hinton agar, 18 hours at 37° C., read-out: minimum inhibitory concentration (MIC)
Protocol: as §1

[10] = system: Streptococcus faecium MD 8b; test: as above; conditions: Enterococcus faecium, MD8B, 2-fold agar dilution, Muller-Hinton agar, 18 hours at 37° C., read-out: minimum inhibitory concentration (MIC)
Protocol: as §1

[11] = system: Streptococcus pyogens 308A; test: as above; conditions: 2-fold agar dilution, Muller-Hinton agar, 18 hours at 37° C., read-out: minimum inhibitory concentration (MIC)
Protocol: as §1

[12] = system: Streptococcus pyogens 77A; test: as above; conditions: 2-fold agar dilution, Muller-Hinton agar, 18 hours at 37° C., read-out: minimum inhibitory concentration (MIC)
Protocol: as §1

[13] = system: Staphylococcus aureus 121E; test: In vitro antibacterial activity against resistant strains (MIC); conditions: resistant strain Staphylococcus aureus 121E; 2-fold agar dilution; methicillin resistant strains 48 hours at 30° C.; read-out: minimum inhibitory concentration (MIC)
Protocol: as §1

[14] = system: Staphylococcus aureus 179; test: as above; conditions: resistant strain Staphylococcus aureus 179; 2-fold agar dilution; methicillin resistant strains 48 hours at 30° C.; read-out: minimum inhibitory concentration (MIC)
Protocol: as §1

[15] = system: Staphylococcus aureus 208E; test: as above; conditions: resistant strain Staphylococcus aureus 208E; 2-fold agar dilution; methicillin resistant strains 48 hours at 30° C.; read-out: minimum inhibitory concentration (MIC)
Protocol: as §1

[16] = system: Staphylococcus aureus 241; test: as above; conditions: resistant strain Staphylococcus aureus 241; 2-fold agar dilution; methicillin resistant strains 48 hours at 30° C.; read-out: minimum inhibitory concentration (MIC)
Protocol: as §1

[17] = system: Staphylococcus aureus 256E; test: as above; conditions: resistant strain Staphylococcus aureus 256E; 2-fold agar dilution; methicillin resistant strains 48 hours at 30° C.; read-out: minimum inhibitory concentration (MIC)
Protocol: as §1

[18] = system: Staphylococcus aureus 293; test: as above; conditions: resistant strain Staphylococcus aureus 293; 2-fold agar dilution; methicillin resistant strains 48 hours at 30° C.; read-out: minimum inhibitory concentration (MIC)
Protocol: as §1

[19] = system: Staphylococcus aureus 303; test: as above; conditions: resistant strain Staphylococcus aureus 303; 2-fold agar dilution; methicillin resistant strains 48 hours at 30° C.; read-out: minimum inhibitory concentration (MIC)
Protocol: as §1

[20] = system: Staphylococcus aureus 690E; test: as above; conditions: resistant strain Staphylococcus aureus 690E; 2-fold agar dilution; methicillin resistant strains 48 hours at 30° C.; read-out: minimum inhibitory concentration (MIC)
Protocol: as §1

[21] = system: Staphylococcus aureus 692E; test: as above; conditions: resistant strain Staphylococcus aureus 692E; 2-fold agar dilution; methicillin resistant strains 48 hours at 30° C.; read-out: minimum inhibitory concentration (MIC)
Protocol: as §1

[22] = system: Staphylococcus aureus 693E; test: as above; conditions: resistant strain Staphylococcus aureus 693E; 2-fold agar dilution; methicillin resistant strains 48 hours at 30° C.; read-out: minimum inhibitory concentration (MIC)
Protocol: as §1

[23] = system: Staphylococcus aureus 694E; test: as above; conditions: resistant strain Staphylococcus aureus 694E; 2-fold agar dilution; methicillin resistant strains 48 hours at 30° C.; read-out: minimum inhibitory concentration (MIC)
Protocol: as §1

[24] = system: Staphylococcus aureus 695E; test: as above; conditions: resistant strain Staphylococcus aureus 695E; 2-fold agar dilution; methicillin resistant strains 48 hours at 30° C.; read-out: minimum inhibitory concentration (MIC)
Protocol: as §1

[25] = system: Staphylococcus aureus 697E; test: as above; conditions: resistant strain Staphylococcus aureus 697E; 2-fold agar dilution; methicillin resistant strains 48 hours at 30° C.; read-out: minimum inhibitory concentration (MIC)
Protocol: as §1

[26] = system: Staphylococcus aureus 701E; test: as above; conditions: resistant strain Staphylococcus aureus 701E; 2-fold agar dilution; methicillin resistant strains 48 hours at 30° C.; read-out: minimum inhibitory concentration (MIC)
Protocol: as §1

[27] = system: Staphylococcus aureus 703E; test: as above; conditions: resistant strain Staphylococcus aureus 703E; 2-fold agar dilution; methicillin resistant strains 48 hours at 30° C.; read-out: minimum inhibitory concentration (MIC)
Protocol: as §1

[28] = system: Staphylococcus aureus 8236; test: as above; conditions: resistant strain Staphylococcus aureus 8236; 2-fold agar dilution; methicillin resistant strains 48 hours at 30° C.; read-out: minimum inhibitory concentration (MIC)
Protocol: as §1

[29] = system: Staphylococcus aureus 88E; test: as above; conditions: resistant strain Staphylococcus aureus 88E; 2-fold agar dilution; methicillin resistant strains 48 hours at 30° C.; read-out: minimum inhibitory concentration (MIC)
Protocol: as §1

[30] = system: Staphylococcus epidermidis 178; test: as above; conditions: resistant strain Staphylococcus epidermidis 178; 2-fold agar dilution; methicillin resistant strains 48 hours at 30° C.; read-out: minimum inhibitory concentration (MIC)
Protocol: as §1

[31] = system: Staphylococcus epidermidis 291; test: as above; conditions: resistant strain Staphylococcus epidermidis 291; 2-fold agar dilution; methicillin resistant strains 48 hours at 30° C.; read-out: minimum inhibitory concentration (MIC)
Protocol: as §1

SMILES | MIC [1] | MIC (Enterobacter clocae P99) | MIC (Esherichia coli 078) | MIC (Esherichia coli 1507E) | MIC (Esherichia coli DC0) | MIC (Esherichia coli TEM) | MIC [2] | MIC (Klebsiella oxytoca 1082E) | MIC [3] | MIC [4] | MIC [5] | MIC [6] | MIC (Salmonella typhimurium) | MIC [7] | MIC [8] | MIC [9] | MIC [10] | MIC [11] | MIC [12] | other results
CON=C1CN(c2nc3c(cc2F)c(=O)c(C(=O)O)cn3C2CC2)CC12CNC2.CS(=O)(=O)O [Example 1, 1-Cyclopropyl-6-fluoro-7-[8-(methoxyimino)-2,6-diazaspiro[3,4]oct-6-yl]-4-oxo-1,4-dihydro[1,8]naphthyridine-3-carboxylic acid methanesulfonate] | 0.013 µg/mL | 0.025 µg/mL | 0.013 µg/mL | 0.025 µg/mL | 0.195 µg/mL | 0.025 µg/mL | 0.049 µg/mL | 0.004 µg/mL | 0.391 µg/mL | 0.391 µg/mL | 0.391 µg/mL | 0.781 µg/mL | 0.013 µg/mL | 0.025 µg/mL | 0.025 µg/mL | 0.007 µg/mL | 0.049 µg/mL | 0.098 µg/mL | 0.007 µg/mL | MIC [13]: 0.049 µg/mL; MIC [14]: 0.781 µg/mL; MIC [15]: 0.049 µg/mL; MIC [16]: 0.781 µg/mL; MIC [17]: 0.025 µg/mL; MIC [18]: 0.781 µg/mL; MIC [19]: 0.781 µg/mL; MIC [20]: 0.025 µg/mL; MIC [21]: 0.025 µg/mL; MIC [22]: 0.049 µg/mL; MIC [23]: 0.049 µg/mL; MIC [24]: 0.049 µg/mL; MIC [25]: 0.013 µg/mL; MIC [26]: 0.049 µg/mL; MIC [27]: 0.049 µg/mL; MIC [28]: 0.781 µg/mL; MIC [29]: 0.049 µg/mL; MIC [30]: 1.56 µg/mL; MIC [31]: 1.56 µg/mL
CON=C1CN(c2c(F)cc3c(=O)c(C(=O)O)cn(C4CC4)c3c2Cl)CC12CNC2 [Example 4, 1-Cyclopropyl-6-fluoro-8-chloro-7-[8-(methoxyimino)-2,6-diazaspiro[3,4]oct-6-yl]-4-oxo-1,4-dihydro-3-quinolinecarboxylic acid] | 0.025 µg/mL (≈ 0.0575 µM) | 0.049 µg/mL (≈ 0.113 µM) | 0.025 µg/mL (≈ 0.0575 µM) | 0.049 µg/mL (≈ 0.113 µM) | 0.391 µg/mL (≈ 0.899 µM) | 0.049 µg/mL (≈ 0.113 µM) | 0.098 µg/mL (≈ 0.225 µM) | 0.004 µg/mL (≈ 0.0092 µM) | 0.781 µg/mL (≈ 1.8 µM) | 0.391 µg/mL (≈ 0.899 µM) | 0.781 µg/mL (≈ 1.8 µM) | 0.781 µg/mL (≈ 1.8 µM) | 0.025 µg/mL (≈ 0.0575 µM) | 0.049 µg/mL (≈ 0.113 µM) | 0.025 µg/mL (≈ 0.0575 µM) | 0.013 µg/mL (≈ 0.0299 µM) | 0.098 µg/mL (≈ 0.225 µM) | 0.195 µg/mL (≈ 0.448 µM) | 0.013 µg/mL (≈ 0.0299 µM) | 
CON=C1CN(c2nc3c(cc2F)c(=O)c(C(=O)O)cn3-c2ccc(F)cc2F)CC12CNC2.CS(=O)(=O)O [Example 7, 1-(2,4-Difluorophenyl)-6-fluoro-7-[8-(methoxyimino)-2,6-diazaspiro[3,4]oct-6-yl]-4-oxo-1,4-dihydro-1,8-naphthyridine-3-carboxylic acid methane sulfonate] | 0.049 µg/mL | 0.098 µg/mL | 0.049 µg/mL | 0.195 µg/mL | 0.781 µg/mL | 0.098 µg/mL | 0.195 µg/mL | 0.013 µg/mL | 1.56 µg/mL | 0.781 µg/mL | 1.56 µg/mL | 1.56 µg/mL | 0.049 µg/mL | 0.049 µg/mL | 0.025 µg/mL | 0.013 µg/mL | 0.098 µg/mL | 0.195 µg/mL | 0.013 µg/mL | 
CCON=C1CN(c2nc3c(cc2F)c(=O)c(C(=O)O)cn3C2CC2)CC12CNC2.CS(=O)(=O)O [Example 8, 1-Cyclopropyl-6-fluoro-7-[8-(ethoxyimino)-2,6-diazaspiro[3,4]oct-6-yl]-4-oxo-1,4-dihydro-1,8-naphthyridine-3-carboxylic acid methanesulfonate] | 0.025 µg/mL | 0.025 µg/mL | 0.013 µg/mL | 0.049 µg/mL | 0.391 µg/mL | 0.025 µg/mL | 0.098 µg/mL | 0.004 µg/mL | 0.781 µg/mL | 0.781 µg/mL | 0.781 µg/mL | 1.56 µg/mL | 0.013 µg/mL | 0.025 µg/mL | 0.013 µg/mL | 0.007 µg/mL | 0.098 µg/mL | 0.098 µg/mL | 0.007 µg/mL | 
CON=C1CN(c2nc3c(cc2F)c(=O)c(C(=O)O)cn3C2CC2)CC12CN(C)C2 [Example 10, 1-Cyclopropyl-6-fluoro-7-[8-(methoxyimino)-2-methyl-2,6-diazaspiro[3,4]oct-6-yl]-4-oxo-1,4-dihydro-1,8-naphthyridine-3-carboxylic acid] | 0.025 µg/mL (≈ 0.0602 µM) | 0.049 µg/mL (≈ 0.118 µM) | 0.013 µg/mL (≈ 0.0313 µM) | 0.049 µg/mL (≈ 0.118 µM) | 0.391 µg/mL (≈ 0.941 µM) | 0.049 µg/mL (≈ 0.118 µM) | 0.098 µg/mL (≈ 0.236 µM) | 0.007 µg/mL (≈ 0.0169 µM) | 0.781 µg/mL (≈ 1.88 µM) | 0.781 µg/mL (≈ 1.88 µM) | 0.781 µg/mL (≈ 1.88 µM) | 0.781 µg/mL (≈ 1.88 µM) | 0.049 µg/mL (≈ 0.118 µM) | 0.049 µg/mL (≈ 0.118 µM) | 0.025 µg/mL (≈ 0.0602 µM) | 0.013 µg/mL (≈ 0.0313 µM) | 0.098 µg/mL (≈ 0.236 µM) | 0.098 µg/mL (≈ 0.236 µM) | 0.013 µg/mL (≈ 0.0313 µM) | 
